What all share (experiment): MIC, broth microdilution growth inhibition
Common to all, as to type: cell-based
Holding throughout (conditions): Mueller-Hinton broth, 5×10^5 CFU/ml, 37° C., 18 h
(Dilution methods test growth across graded concentrations, often in twofold steps.)

For one test, the system named is E. coli 1850E. As for the experimental part:
(§1) Growth-inhibitory activity was determined on liquid medium by the antibiotic dilution technique using 96-well microtiter system plates containing two-fold dilutions of antibiotic-agent in 0.2 ml. of Mueller-Hinton broth. Plates were inoculated with each test organism to yield a final inoculum of 5×10^5 CFU/ml and were incubated aerobically at 37° C. for 18 h. The MIC was defined as the lowest concentration of antibacterial agent that inhibited development of visible growth in the microdilution wells.

The next test deals with E. hirae ATCC 9790. As for the experimental part:
as §1

Another test has as its system H. influenzae ATCC 49247. As to the method:
as §1

Test [1] deals with M. catarrhalis ATCC 23246. As for the experimental part: as §1
A further test deals with S. aureus ATCC 29213. As for the experimental part:
as §1

The next test relates to S. aureus RN4250. As to the method: as §1
The subject of a further test is S. aureus RN450. As to the method: as §1
For a further test, the system named is S. pneumoniae ATCC 49619. As to the method:
as §1

The next test has as its system S. aureus ATCC 13709. As for the experimental part:
as §1

Another test deals with S. pneumoniae 157E. As to the method: as §1
For the next test, the system named is E. coli ATCC 25933. As for the experimental part:
as §1

≈ marks a conversion by molar mass, not a printed value.

As for `CCOC(=O)CNc1cc(N(C)C)c2c(c1O)C(=O)C1=C(O)[C@]3(O)C(=O)C(C(N)=O)=C(O)[C@@H](N(C)C)[C@@H]3C[C@@H]1C2` [Example 1, [4S-(4a,5a,12a)]-4,7-Bis(dimethylamino)-9-[(ethoxycarbonyl)methyl]amino-1,4,4a,5,5a,6,11,12a-octahydro-3,10,12,12a-tetrahydroxy-1,11-dioxo-2-naphtacenecarboxamide], the MIC in the test with E. coli 1850E amounted to 32 µg/mL (≈ 57.3 µM); against E. hirae ATCC 9790, 8 µg/mL (≈ 14.3 µM); with H. influenzae ATCC 49247, 32 µg/mL (≈ 57.3 µM); in test [1], 4 µg/mL (≈ 7.16 µM); in the test on S. aureus ATCC 29213, 16 µg/mL (≈ 28.6 µM); with S. aureus RN4250, 16 µg/mL (≈ 28.6 µM). Moreover, the MIC in the test with S. aureus RN450 was 16 µg/mL (≈ 28.6 µM); against S. pneumoniae ATCC 49619 it was 32 µg/mL (≈ 57.3 µM).
In the case of `CCOC(=O)C(C)Nc1ccc2c(c1O)C(=O)C1=C(O)[C@]3(O)C(=O)C(C(N)=O)=C(O)[C@@H](N(C)C)[C@@H]3[C@@H](O)[C@@H]1[C@H]2C` (stereo partly drawn) [Example 2, [4S-(4a,5,5a,6,12a)]-4-(Dimethylamino)-9-[1-(ethoxycarbonyl)ethyl]amino-1,4,4a,5,5a,6,11,12a-octahydro-3,5,10,12,12a-pentahydroxy-6-methyl-1,11-dioxo-2-naphtacenecarboxamide], the MIC is 64 µg/mL (≈ 114 µM) against E. coli 1850E; 0.25 µg/mL (≈ 0.447 µM) in the test on E. hirae ATCC 9790; 32 µg/mL (≈ 57.2 µM) in the test on H. influenzae ATCC 49247; 1 µg/mL (≈ 1.79 µM) in test [1]; 0.5 µg/mL (≈ 0.894 µM) with S. aureus ATCC 13709; 2 µg/mL (≈ 3.57 µM) against S. aureus RN4250. The figures for the MIC in the test with S. aureus RN450, against S. pneumoniae 157E and with S. pneumoniae ATCC 49619 were 0.25 µg/mL (≈ 0.447 µM), 1 µg/mL (≈ 1.79 µM) and 0.5 µg/mL (≈ 0.894 µM), respectively.
Turning to `CCOC(=O)CNc1ccc2c(c1O)C(=O)C1=C(O)[C@]3(O)C(=O)C(C(N)=O)=C(O)[C@@H](N(C)C)[C@@H]3[C@@H](O)[C@@H]1[C@H]2C` [Example 3, [4S-(4a,5,5a,6,12a)]-4-(Dimethylamino)-9-[(ethoxycarbonyl)methyl]amino-1,4,4a,5,5a,6,11,12a-octahydro-3,5,10,12,12a-pentahydroxy-6-methyl-1,11-dioxo-2-naphtacenecarboxamide], the MIC against E. coli 1850E was 32 µg/mL (≈ 58.7 µM); in the test on E. hirae ATCC 9790, 1 µg/mL (≈ 1.83 µM); in the test with H. influenzae ATCC 49247 it was 8 µg/mL (≈ 14.7 µM); in test [1], 2 µg/mL (≈ 3.67 µM); in the test on S. aureus ATCC 13709, 1 µg/mL (≈ 1.83 µM); against S. aureus RN4250, 2 µg/mL (≈ 3.67 µM). For the same molecule, the MIC in the test on S. aureus RN450 and in the test with S. pneumoniae ATCC 49619 was 0.5 µg/mL (≈ 0.917 µM) throughout.
Take `C[C@H]1c2ccc(NCC(=O)N(C)C)c(O)c2C(=O)C2=C(O)[C@]3(O)C(=O)C(C(N)=O)=C(O)[C@@H](N(C)C)[C@@H]3[C@@H](O)[C@@H]21` [Example 4, [4S-(4a,5,5a,6,12a)]-4-(Dimethylamino)-9-[(N,N-dimethylaminocarbonyl)methyl]amino-1,4,4a,5,5a,6,11,12a-octahydro-3,5,10,12,12a-pentahydroxy-6-methyl-1,11-dioxo-2-naphtacenecarboxamide]: the MIC in the test on E. coli ATCC 25933 came to 2 µg/mL (≈ 3.67 µM); against H. influenzae ATCC 49247, 2 µg/mL (≈ 3.67 µM); against S. aureus ATCC 29213 it was 0.5 µg/mL (≈ 0.918 µM); against S. pneumoniae ATCC 49619, 0.06 µg/mL (≈ 0.11 µM).

(Values after US7208482B2, “9-aminoacyl tetracycline compounds and methods of use thereof” (Paratek Pharmaceuticals, Inc., priority 2001, dated 2007).)
